Experiment [1] relates to K562 (BCR-ABL+) cells. The experiment is described as follows: CCK-8 proliferation inhibition, K562 cells.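 Note: Ten-point threefold dilution series starting at 10 µM, absorbance at 450 nm after 2 h with CCK-8, DMSO as negative control.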 To be noted: Homo sapiens, K562, 48 h, CCK-8, 48 hours of drug treatment; read-out: Proliferative inhibitory activity (IC50, nM) K562 (BCR-ABL+). In kind it is cell-based, human.
Experiment [2] has as its target BCR-ABL protein (Homo sapiens, UniProt P00519). The experiment is described as follows: Western blot degradation of BCR-ABL in K562 cells. In kind it is cell-based. Also on record: Western blot was used to detect the expression of BCR-ABL and c-ABL protein in K562 cells; BCR (fusion partner, P11274); endogenous in cells; host or cells: K562; the other entry of the earlier key: BCR (P11274, Breakpoint cluster region protein). The following applies: 16 hours, 1 nM-10 μM. The method, then: (§1) (1) Cell seed: K562 cells were added to the 24 well plates, with a cell density of 3×10^5/ml and a total volume of 1.5 ml; Five concentration gradients, 1 nm, 10 nm, 100 nm, 1 μM, and 10 μM, were respectively set for PROTAD series compounds and comparative examples compounds (Dasa-6-2-2-6-VHL, Dasa-6-2-6-CRBN). […] After 16 hours of drug treatment, the cells were collected in 1.5 ml ep tube, centrifuged at 3000 rpm for 3 minutes, and then added 30 μL PBS and 30 ul 2×SDS to cell precipitated, lysate Heat at 100° C. for 5 minutes, then place on ice for 5 minutes, centrifuged at 10000 rpm for 5 minutes, and take the supernatant as the total protein extracted. The protein concentration was determined by the Bradford method. After each sample was at the same concentration, bromophenol blue was added as the sample indicator.
(§2) (2) Electrophoresis: the starting voltage of the BioRad electrophoresis instrument was 80V, and as the dye enters the separation gel, the voltage was adjusted to 120V;
(§3) (3) Film transfer: prepare filter paper and nitrocellulose membrane with the corresponding size of the gel, filter paper, and NC film were soaked in transfer electrophoresis buffer.
(§4) DC50 (concentration required to degrade protein by half) were calculated based on the intensity from western blot, and data were analyzed via Prism GraphPad with non-linear regression.
Background: In western blotting, separated proteins are transferred to a membrane and probed.

In experiment [3] the target is c-ABL protein (Homo sapiens, UniProt P00519). The experiment is described as follows: Western blot degradation of c-ABL in K562 cells. To be noted: 16 hours, 1 nM-10 μM. Also on record: Western blot was used to detect the expression of BCR-ABL and c-ABL protein in K562 cells; endogenous in cells; host or cells: K562. In kind it is cell-based. The method, then: as §1, §2, §3, §4
Sequence of c-ABL protein (P00519 whole entry): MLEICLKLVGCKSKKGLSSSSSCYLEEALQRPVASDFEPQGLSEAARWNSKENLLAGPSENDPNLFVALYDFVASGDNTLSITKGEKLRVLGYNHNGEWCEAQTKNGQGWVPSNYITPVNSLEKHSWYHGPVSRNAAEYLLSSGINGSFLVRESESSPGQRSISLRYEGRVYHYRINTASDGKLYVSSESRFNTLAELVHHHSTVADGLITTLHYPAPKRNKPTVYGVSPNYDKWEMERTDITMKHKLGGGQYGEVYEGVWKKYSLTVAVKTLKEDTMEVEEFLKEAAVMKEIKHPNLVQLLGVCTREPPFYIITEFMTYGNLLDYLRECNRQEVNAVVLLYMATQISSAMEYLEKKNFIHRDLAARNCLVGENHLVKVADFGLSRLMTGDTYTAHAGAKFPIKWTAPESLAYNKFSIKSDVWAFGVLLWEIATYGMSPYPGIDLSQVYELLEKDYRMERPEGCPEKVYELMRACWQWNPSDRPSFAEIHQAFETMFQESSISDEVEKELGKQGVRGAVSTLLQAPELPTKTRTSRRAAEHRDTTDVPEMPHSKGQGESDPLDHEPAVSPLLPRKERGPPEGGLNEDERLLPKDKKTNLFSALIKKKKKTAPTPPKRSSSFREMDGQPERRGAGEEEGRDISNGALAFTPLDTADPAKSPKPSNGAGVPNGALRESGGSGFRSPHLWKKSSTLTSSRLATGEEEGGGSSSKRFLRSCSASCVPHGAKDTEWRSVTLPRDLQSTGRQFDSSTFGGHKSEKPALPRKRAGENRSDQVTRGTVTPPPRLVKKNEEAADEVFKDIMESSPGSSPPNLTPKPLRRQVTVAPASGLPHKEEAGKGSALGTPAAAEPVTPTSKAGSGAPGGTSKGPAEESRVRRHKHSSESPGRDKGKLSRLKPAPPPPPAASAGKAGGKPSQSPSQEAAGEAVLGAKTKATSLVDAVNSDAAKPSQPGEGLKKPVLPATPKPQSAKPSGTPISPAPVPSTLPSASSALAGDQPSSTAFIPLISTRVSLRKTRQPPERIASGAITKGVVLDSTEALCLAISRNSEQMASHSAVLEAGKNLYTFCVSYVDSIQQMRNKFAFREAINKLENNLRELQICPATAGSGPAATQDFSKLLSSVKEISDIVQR

Experiment [4] concerns U937 (BCR-ABL-) cells. The experiment is described as follows: CCK-8 proliferation inhibition, U937 cells.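 Note: Ten-point threefold dilution series, absorbance at 450 nm after 2 h with CCK-8 reagent, DMSO as negative control.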 The following applies: Homo sapiens, U-937; CCK-8, 48 hours of drug treatment, highest concentration 10 μM; read-out: Proliferative inhibitory activity (IC50, nM) U937 (BCR-ABL-). In kind it is cell-based, human.
For experiment [5], the system named is HEK293 (BCR-ABL-) cells. The experiment is described as follows: CCK-8 proliferation inhibition, HEK293 cells.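 Note: Ten-point threefold dilution series starting at 10 µM, CCK-8 absorbance at 450 nm read after 2 h reagent incubation, DMSO-treated cells as negative control.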 The following applies: Homo sapiens, HEK293, 48 h, read-out: Proliferative inhibitory activity (IC50, nM) HEK293 (BCR-ABL-).

The structures appear in SMILES notation. Where only a bound is given, the exact number is not on record here.

Sequence of BCR-ABL protein (P00519 with tags, fused parts or gaps): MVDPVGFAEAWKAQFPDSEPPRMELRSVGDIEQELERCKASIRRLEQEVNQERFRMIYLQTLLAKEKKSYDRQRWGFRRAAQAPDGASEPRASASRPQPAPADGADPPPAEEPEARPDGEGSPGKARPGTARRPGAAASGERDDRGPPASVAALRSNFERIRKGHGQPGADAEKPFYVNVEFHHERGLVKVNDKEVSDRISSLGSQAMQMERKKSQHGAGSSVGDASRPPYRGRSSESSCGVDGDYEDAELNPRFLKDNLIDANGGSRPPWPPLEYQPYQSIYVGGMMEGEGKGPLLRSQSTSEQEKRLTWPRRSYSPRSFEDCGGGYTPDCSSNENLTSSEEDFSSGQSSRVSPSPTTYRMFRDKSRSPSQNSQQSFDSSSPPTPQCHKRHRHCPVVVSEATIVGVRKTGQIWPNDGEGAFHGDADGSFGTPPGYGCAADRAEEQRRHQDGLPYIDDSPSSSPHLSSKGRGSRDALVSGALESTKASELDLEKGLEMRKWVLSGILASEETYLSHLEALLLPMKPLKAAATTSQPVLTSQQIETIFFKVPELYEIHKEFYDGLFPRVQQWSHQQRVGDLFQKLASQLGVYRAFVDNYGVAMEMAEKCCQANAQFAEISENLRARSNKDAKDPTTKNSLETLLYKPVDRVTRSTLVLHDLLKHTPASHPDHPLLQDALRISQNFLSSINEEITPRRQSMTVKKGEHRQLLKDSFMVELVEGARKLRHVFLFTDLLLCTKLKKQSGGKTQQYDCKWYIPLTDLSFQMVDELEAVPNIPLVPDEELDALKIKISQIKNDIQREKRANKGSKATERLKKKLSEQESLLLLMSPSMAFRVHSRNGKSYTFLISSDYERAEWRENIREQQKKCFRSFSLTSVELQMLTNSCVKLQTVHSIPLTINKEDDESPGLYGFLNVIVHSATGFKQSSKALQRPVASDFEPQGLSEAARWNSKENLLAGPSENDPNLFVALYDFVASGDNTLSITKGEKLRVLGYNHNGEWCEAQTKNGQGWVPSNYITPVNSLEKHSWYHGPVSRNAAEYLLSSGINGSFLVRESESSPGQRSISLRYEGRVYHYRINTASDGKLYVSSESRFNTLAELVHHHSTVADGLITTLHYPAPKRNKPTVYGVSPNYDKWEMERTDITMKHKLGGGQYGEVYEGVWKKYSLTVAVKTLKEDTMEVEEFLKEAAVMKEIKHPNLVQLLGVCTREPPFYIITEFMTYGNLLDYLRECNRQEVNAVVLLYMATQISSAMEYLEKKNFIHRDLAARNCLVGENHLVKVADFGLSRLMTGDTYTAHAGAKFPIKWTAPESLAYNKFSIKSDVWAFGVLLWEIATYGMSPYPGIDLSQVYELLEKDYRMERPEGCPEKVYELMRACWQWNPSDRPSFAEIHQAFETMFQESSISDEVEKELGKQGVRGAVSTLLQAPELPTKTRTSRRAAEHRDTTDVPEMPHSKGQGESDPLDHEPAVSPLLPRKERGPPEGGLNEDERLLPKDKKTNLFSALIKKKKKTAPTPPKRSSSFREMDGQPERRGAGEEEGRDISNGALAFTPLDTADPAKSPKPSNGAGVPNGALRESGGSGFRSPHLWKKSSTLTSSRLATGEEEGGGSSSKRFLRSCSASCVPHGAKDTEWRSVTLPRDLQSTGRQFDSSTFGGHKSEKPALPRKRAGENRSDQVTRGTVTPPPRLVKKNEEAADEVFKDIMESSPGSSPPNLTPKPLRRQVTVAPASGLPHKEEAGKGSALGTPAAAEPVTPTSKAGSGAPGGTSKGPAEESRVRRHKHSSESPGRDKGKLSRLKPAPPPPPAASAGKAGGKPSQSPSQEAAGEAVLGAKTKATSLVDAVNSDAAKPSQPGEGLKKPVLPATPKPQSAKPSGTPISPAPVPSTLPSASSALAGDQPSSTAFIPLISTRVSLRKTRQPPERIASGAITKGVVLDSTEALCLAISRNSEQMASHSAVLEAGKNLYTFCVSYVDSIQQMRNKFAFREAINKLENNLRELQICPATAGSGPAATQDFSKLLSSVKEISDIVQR

The term IC50 denotes the midpoint of a concentration-inhibition curve. One may read the DC50 as the concentration at which degradation of the target reaches its halfway point. Regarding `Cc1nc(Nc2ncc(C(=O)Nc3c(C)cccc3Cl)s2)cc(N2CCN(C(=O)CCCC(=O)N[C@H](C(=O)N3C[C@H](O)C[C@H]3C(=O)NCc3ccc(-c4scnc4C)cc3)C(C)(C)C)CC2)n1` [SIAIS151175, N-(2-chloro-6-methylphenyl)-2-((6-(4-(5-(((S)-1-((2S,4R)-4-hydroxy-2-((4-(4-methylthiazol-5-yl)benzyl)carbamoyl)pyrrolidin-1-yl)-3,3-dimethyl-1-oxobutan-2-yl)amino)-5-oxopentanoyl)piperazin-1-yl)-2-methylpyrimidin-4-yl)amino)thiazole-5-carboxamide], the IC50 in experiment [1] was 87 nM; in experiment [4], greater than 10000 nM; in experiment [5], 3890 nM. For the same compound, the DC50 was 10 to 100 nM in experiment [2] and 100 to 1000 nM in experiment [3].
For the compound `Cc1nc(Nc2ncc(C(=O)Nc3c(C)cccc3Cl)s2)cc(N2CCN(C(=O)CCCCC(=O)N[C@H](C(=O)N3C[C@H](O)C[C@H]3C(=O)NCc3ccc(-c4scnc4C)cc3)C(C)(C)C)CC2)n1` [SIAIS151176, N-(2-chloro-6-methylphenyl)-2-((6-(4-(6-(((S)-1-((2S,4R)-4-hydroxy-2-((4-(4-methylthiazol-5-yl)benzyl)carbamoyl)pyrrolidin-1-yl)-3,3-dimethyl-1-oxobutan-2-yl)amino)-6-oxohexanoyl)piperazin-1-yl)-2-methylpyrimidin-4-yl)amino)thiazole-5-carboxamide], the IC50 in experiment [1] is 89 nM; in experiment [4], greater than 10000 nM; in experiment [5], greater than 10000 nM. Also, the results for the DC50 in experiment [2] and in experiment [3] were 10 to 100 nM and 100 to 1000 nM, respectively.
On to `Cc1nc(Nc2ncc(C(=O)Nc3c(C)cccc3Cl)s2)cc(N2CCN(C(=O)CCCCCC(=O)N[C@H](C(=O)N3C[C@H](O)C[C@H]3C(=O)NCc3ccc(-c4scnc4C)cc3)C(C)(C)C)CC2)n1` [SIAIS151177, N-(2-chloro-6-methylphenyl)-2-((6-(4-(7-(((S)-1-((2S,4R)-4-hydroxy-2-((4-(4-methylthiazol-5-yl)benzyl)carbamoyl)pyrrolidin-1-yl)-3,3-dimethyl-1-oxobutan-2-yl)amino)-7-oxoheptanoyl)piperazin-1-yl)-2-methylpyrimidin-4-yl)amino)thiazole-5-carboxamide], for which the IC50 in experiment [1] is 37.6 nM; in experiment [4], greater than 10000 nM; in experiment [5], greater than 10000 nM. Moreover, the DC50 in experiment [2] was 1 to 10 nM; in experiment [3] it was 10 to 100 nM.
With `Cc1nc(Nc2ncc(C(=O)Nc3c(C)cccc3Cl)s2)cc(N2CCN(C(=O)CCCCCCCC(=O)N[C@H](C(=O)N3C[C@H](O)C[C@H]3C(=O)NCc3ccc(-c4scnc4C)cc3)C(C)(C)C)CC2)n1` [SIAIS151179, N-(2-chloro-6-methylphenyl)-2-((6-(4-(9-(((S)-1-((2S,4R)-4-hydroxy-2-((4-(4-methylthiazol-5-yl)benzyl)carbamoyl)pyrrolidin-1-yl)-3,3-dimethyl-1-oxobutan-2-yl)amino)-9-oxononanoyl)piperazin-1-yl)-2-methylpyrimidin-4-yl)amino)thiazole-5-carboxamide], the IC50 in experiment [1] is 22.4 nM; in experiment [4], greater than 10000 nM; in experiment [5], greater than 10000 nM. Besides, the DC50 in experiment [2] lay within 10 to 100 nM; in experiment [3] it was 100 to 1000 nM.
In the case of `Cc1nc(Nc2ncc(C(=O)Nc3c(C)cccc3Cl)s2)cc(N2CCN(C(=O)CCCCCCCCC(=O)N[C@H](C(=O)N3C[C@H](O)C[C@H]3C(=O)NCc3ccc(-c4scnc4C)cc3)C(C)(C)C)CC2)n1` [SIAIS151180, N-(2-chloro-6-methylphenyl)-2-((6-(4-(10-(((S)-1-((2S,4R)-4-hydroxy-2-((4-(4-methylthiazol-5-yl)benzyl)carbamoyl)pyrrolidin-1-yl)-3,3-dimethyl-1-oxobutan-2-yl)amino)-10-oxodecanoyl)piperazin-1-yl)-2-methylpyrimidin-4-yl)amino)thiazole-5-carboxamide], the IC50 is 14.3 nM in experiment [1], greater than 10000 nM in experiment [4] and greater than 10000 nM in experiment [5]. The DC50 in experiment [2] lay within 1 to 10 nM; in experiment [3], 10 to 100 nM.
As for `Cc1nc(Nc2ncc(C(=O)Nc3c(C)cccc3Cl)s2)cc(N2CCN(C(=O)CCCCCCNc3cccc4c3C(=O)N(C3CCC(=O)NC3=O)C4=O)CC2)n1` (stereo not shown) [SIAIS151181, N-(2-chloro-6-methylphenyl)-2-((6-(4-(7-((2-(2,6-dioxopiperidin-3-yl)-1,3-dioxoisoindolin-4-yl)amino)heptanoyl)piperazin-1-yl)-2-methylpyrimidin-4-yl)amino)thiazole-5-carboxamide], the IC50 in experiment [1] was 1.47 nM; in experiment [4], greater than 10000 nM; in experiment [5], greater than 10000 nM. The DC50 in experiment [2] and in experiment [3] was 1 to 10 nM in each case.
As to `COc1cc(Nc2c(C#N)cnc3cc(OCCCN4CCN(C(=O)CCC(=O)Nc5cccc6c5CN(C5CCC(=O)NC5=O)C6=O)CC4)c(OC)cc23)c(Cl)cc1Cl` (stereo not shown) [SIAIS164105, 4-(4-(3-((3-cyano-4-((2,4-dichloro-5-methoxyphenyl)amino)-6-methoxyquinolin-7-yl)oxy)propyl)piperazin-1-yl)-N-(2-(2,6-dioxopiperidin-3-yl)-1-oxoisoindolin-4-yl)-4-oxobutanamide], the IC50 in experiment [1] was 459 nM; in experiment [4], greater than 10000 nM; in experiment [5], greater than 10000 nM. The DC50 in experiment [2] and in experiment [3] was 10 to 100 nM each time.
For the compound `Cc1nc(Nc2ncc(C(=O)Nc3c(C)cccc3Cl)s2)cc(N2CCN(C(=O)CC(=O)Nc3cccc4c3CN(C3CCC(=O)NC3=O)C4=O)CC2)n1` (stereo not shown) [SIAIS164108, N-(2-chloro-6-methylphenyl)-2-((6-(4-(3-((2-(2,6-dioxopiperidin-3-yl)-1-oxoisoindolin-4-yl)amino)-3-oxopropanoyl)piperazin-1-yl)-2-methylpyrimidin-4-yl)amino)thiazole-5-carboxamide], the IC50 in experiment [1] was 12.2 nM; in experiment [4], greater than 10000 nM; in experiment [5], greater than 10000 nM. The DC50 in experiment [2] and in experiment [3] was 10 to 100 nM throughout.
With `Cc1nc(Nc2ncc(C(=O)Nc3c(C)cccc3Cl)s2)cc(N2CCN(C(=O)CCC(=O)Nc3cccc4c3CN(C3CCC(=O)NC3=O)C4=O)CC2)n1` (stereo not shown) [SIAIS164109, N-(2-chloro-6-methylphenyl)-2-((6-(4-(4-((2-(2,6-dioxopiperidin-3-yl)-1-oxoisoindolin-4-yl)amino)-4-oxobutanoyl)piperazin-1-yl)-2-methylpyrimidin-4-yl)amino)thiazole-5-carboxamide], the concentration for half-maximal inhibition (IC50) in experiment [1] was 7.08 nM; in experiment [4], greater than 10000 nM; in experiment [5], greater than 10000 nM. Moreover, the DC50 in experiment [2] and in experiment [3] was 100 to 1000 nM throughout.
Turning to `Cc1nc(Nc2ncc(C(=O)Nc3c(C)cccc3Cl)s2)cc(N2CCN(C(=O)CCCC(=O)Nc3cccc4c3CN(C3CCC(=O)NC3=O)C4=O)CC2)n1` (stereo not shown) [SIAIS164110, N-(2-chloro-6-methylphenyl)-2-((6-(4-(5-((2-(2,6-dioxopiperidin-3-yl)-1-oxoisoindolin-4-yl)amino)-5-oxopentanoyl)piperazin-1-yl)-2-methylpyrimidin-4-yl)amino)thiazole-5-carboxamide], the concentration for half-maximal inhibition (IC50) was 1.03 nM in experiment [1], greater than 10000 nM in experiment [4] and greater than 10000 nM in experiment [5]. The DC50 in experiment [2] and in experiment [3] was 10 to 100 nM in each case.
For the compound `COc1cc(Nc2c(C#N)cnc3cc(OCCCN4CCN(C(=O)CCC(=O)NCCNc5cccc6c5C(=O)N(C5CCC(=O)NC5=O)C6=O)CC4)c(OC)cc23)c(Cl)cc1Cl` (stereo not shown) [SIAIS164136, 4-(4-(3-((3-cyano-4-((2,4-dichloro-5-methoxyphenyl)amino)-6-methoxyquinolin-7-yl)oxy)propyl)piperazin-1-yl)-N-(2-((2-(2,6-dioxopiperidin-3-yl)-1,3-dioxoisoindolin-4-yl)amino)ethyl)-4-oxobutanamide], the IC50 in experiment [1] was 77.6 nM; in experiment [4], greater than 10000 nM; in experiment [5] it was greater than 10000 nM. Besides, the DC50 in experiment [2] and in experiment [3] was 1 to 10 nM in each case.
